What all share (experiment): growth of human tumour cells (NCI), 48 h
For assay [1], the system named is SK-MEL-2 melanoma.
Assay [2] relates to HOP-62 NSCLC.
In assay [3] the test system is DU-145 prostate.
For assay [4], the system named is SF-539 CNS.
In assay [5] the test system is OVCAR-3 ovarian.
Assay [6] relates to UACC-257 melanoma.
Assay [7] deals with MDA-MB-435.
The test system of assay [8] is T-47D breast.
Assay [9] has as its system MDA-MB-231 breast.
Assay [10] concerns HCT-116 colon.

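1) Cells in 96-well plates. 2) Compound, 48 h, 5 concentrations. 3) Linear interpolation between surrounding doses. 4) Unreached endpoint = highest concentration. Abbreviation: GI50, concentration required for 50% inhibition of growth. The concentration for full growth arrest is given as TGI.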

Data on 8 molecules can be found in PubChem BioAssay (NCI).

With `Cc1ccc(C)c(N2CCN(c3ccncc3N)CC2)c1`, the GI50 in assay [1] is 15.6 µM; in assay [2], 26.9 µM; in [3], 17.9 µM; in assay [4], 15.4 µM; in [5], 12.2 µM; in assay [6] it was 14.4 µM. Moreover, the GI50 is 14.9 µM in assay [7], 3.23 µM in assay [8], 14.3 µM in [9] and 11.9 µM in assay [10]. Further, the TGI in [1] is 31.2 µM; in [2] it was more than 100 µM; in assay [3], 64.8 µM; in [4], 56.9 µM; in assay [5], 58.8 µM; in assay [6], 34.6 µM. Besides, the TGI in assay [7] is 36.3 µM; in assay [8], 30.3 µM; in assay [9], 36.9 µM; in assay [10], more than 100 µM.
For `COc1cc2c(c3oc4c(O)cccc4c(=O)c13)CC(C(C)(O)CCl)O2` (centres undefined), the TGI amounted to 3.38 µM in [1]; 5.85 µM in assay [2]; 10.3 µM in [3]; 2.2 µM in assay [4]; 7.43 µM in assay [5]; 6.79 µM in [6]. For the same molecule, the TGI in assay [7] came to 1.55 µM; in assay [8], 13.5 µM; in assay [9], 5.6 µM; in [10], 2.53 µM.
As to `Oc1ccccc1/C=N\NC(=S)Nc1ccc(F)cc1`, the GI50 in [1] was 5.96 µM; in assay [2] it was 0.832 µM; in assay [3], 1.97 µM; in assay [4], 2.12 µM; in assay [5], 0.41 µM; in assay [6], 2.68 µM. Besides, the GI50 in [7] was 0.404 µM; in assay [8] it was 3.34 µM; in [9], 1.74 µM; in assay [10] it was 0.403 µM. In addition, the TGI is more than 100 µM in assay [1]; more than 65 µM in [2]; more than 100 µM in [3]; 32.3 µM in assay [4]; more than 69 µM in assay [5]; more than 65.3 µM in assay [6]. The TGI is more than 96.6 µM in assay [7], 60.1 µM in assay [8], more than 100 µM in [9] and more than 100 µM in assay [10].
For `NS(=O)(=O)c1cccc(Nc2cc(-c3ccc(F)cc3)[nH]n2)c1`, the GI50 in assay [1] is 16.1 µM; in [2], more than 25 µM; in [3], 16.2 µM; in assay [4], 15.1 µM; in [5], 19.5 µM; in [6] it was more than 25 µM. Further, the GI50 is more than 25 µM in assay [7], more than 23.3 µM in [8], more than 25 µM in assay [9] and 11.9 µM in assay [10]. Also, the TGI in assay [1], in [2], in assay [3], in [4], in assay [5] and in assay [6] was more than 25 µM in each case. The TGI in assay [7], in assay [8], in assay [9] and in assay [10] was more than 25 µM throughout.
With `N#Cc1ccc2c(-c3ccnc(NC4CC4)n3)c(-c3ccc(F)cc3)nn2c1`, the GI50 in [1], in [2], in [3], in assay [4], in assay [5] and in [6] was more than 25 µM in each case. Moreover, the GI50 in assay [7], in [8], in assay [9] and in [10] was more than 25 µM each time. Also, the TGI in assay [1], in assay [2], in assay [3], in [4], in assay [5] and in assay [6] was more than 25 µM throughout. For the same molecule, the TGI in [7], in assay [8], in assay [9] and in assay [10] was more than 25 µM in each case.
Regarding `O=C(NCCN1CCOCC1)c1cc2c(Oc3ccc(NC(=O)C4(C(=O)Nc5ccc(F)cc5)CC4)cc3)ccnc2[nH]1`, the GI50 in assay [1] is 9.19 µM; in assay [2], 3.22 µM; in assay [3] it was 10.6 µM; in [4] it was 1.39 µM; in assay [5], 19 µM; in assay [6], 5.14 µM. Moreover, the GI50 in [7] is 3.22 µM; in assay [8], 4.43 µM; in assay [9], 8.4 µM; in assay [10], 8.78 µM. Also, the TGI in [1] is 22.9 µM; in assay [2], 31.5 µM; in [3] it was more than 100 µM; in assay [4], 16.5 µM; in assay [5], more than 85.7 µM; in [6], 19.5 µM. For the same molecule, the TGI is 23.3 µM in assay [7], 46 µM in [8], 30.7 µM in [9] and more than 100 µM in assay [10].
For `COC(=O)C(=O)C(C(=O)C(=O)Nc1cc(C)ccc1C)c1nc2ccccc2[nH]c1=O` (centres undefined), the TGI in assay [1], in assay [2], in assay [3], in assay [4], in [5] and in assay [6] was more than 100 µM in each case. Moreover, the TGI in assay [7], in [8], in [9] and in assay [10] was more than 100 µM each time.
As to `NP1(Oc2ccc(F)cc2)=NP(N)(Oc2ccc(F)cc2)=NP(Oc2ccc(F)cc2)(Oc2ccc(F)cc2)=N1` (centres undefined), the TGI in assay [2] turned out to be 21.5 µM; in assay [3] it was 20.1 µM; in assay [4] it was 27.5 µM; in [5] it was 16 µM; in assay [6], 24.7 µM; in [7], 19.3 µM. The TGI in assay [8] amounted to 7.27 µM; in [9], 23.4 µM; in assay [10], 15.7 µM.
